From BindingDB's records for doi:10.1016/j.bmc.2006.12.019 (Berlex, 2007)

Key:
Test in all cases: Enzyme Inhibition Assay
Prothrombin = Prothrombin (Homo sapiens, UniProt P00734)
Description: (§1) The enzyme activities were determined kinetically as the initial rate of cleavage of a peptide p-nitroanilide. Km for enzyme and substrate was determined using four substrate dilutions. Enzyme was incubated with test compounds for 10 min; the reaction was then started by the addition of the substrate. […] IC50 values for inhibitors were determined from the dose response curve by fitting the data to the Hill equation. Ki,app values were calculated as the IC50/2, with the IC50 value determined at a substrate concentration equal to Km

Serine protease 1 = target: T1, Serine protease 1 (Bos taurus, UniProt P00760)
T1 sequence (P00760 whole entry): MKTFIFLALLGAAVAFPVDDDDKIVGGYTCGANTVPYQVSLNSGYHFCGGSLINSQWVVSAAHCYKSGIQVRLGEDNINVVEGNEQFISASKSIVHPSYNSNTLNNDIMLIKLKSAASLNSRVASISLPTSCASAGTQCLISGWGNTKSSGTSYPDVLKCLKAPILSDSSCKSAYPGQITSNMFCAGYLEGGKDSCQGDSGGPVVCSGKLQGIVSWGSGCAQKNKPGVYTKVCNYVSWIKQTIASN
Description: as §1

Coagulation factor X = Coagulation factor X (Homo sapiens, UniProt P00742)
Chain of Coagulation factor X (P00742 41-179 limits assumed): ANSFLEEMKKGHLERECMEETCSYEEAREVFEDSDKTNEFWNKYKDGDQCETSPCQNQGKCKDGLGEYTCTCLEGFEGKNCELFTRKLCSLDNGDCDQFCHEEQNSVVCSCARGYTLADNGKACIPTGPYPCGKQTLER
Chain of Coagulation factor X (P00742 235-488 limits assumed): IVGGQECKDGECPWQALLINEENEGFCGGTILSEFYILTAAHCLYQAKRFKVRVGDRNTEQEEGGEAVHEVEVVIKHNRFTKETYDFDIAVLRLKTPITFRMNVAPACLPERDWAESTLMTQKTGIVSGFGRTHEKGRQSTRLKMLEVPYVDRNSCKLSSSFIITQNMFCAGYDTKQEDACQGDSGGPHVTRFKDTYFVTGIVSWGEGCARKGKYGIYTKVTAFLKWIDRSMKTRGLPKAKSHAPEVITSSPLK
Description: as §1

Row | SMILES | Ki (Prothrombin) [µM] | Ki (Serine protease 1) [µM] | Ki (Coagulation factor X) [nM]
1 | Cc1ccc(NC(=O)c2sc3ccccc3c2Cl)c(C(=O)Nc2ccc(Cl)cc2)c1 [3-chloro-N-{2-[(4-chlorophenyl)carbamoyl]-4-methylphenyl}-1-benzothiophene-2-carboxamide] | > 5 | > 5 | 
2 | CN(C)Cc1ccc2c(Cl)c(C(=O)Nc3ccc(Cl)cc3C(=O)Nc3ccc(Cl)cc3)sc2c1 [3-chloro-N-{4-chloro-2-[(4-chlorophenyl)carbamoyl]phenyl}-6-[(dimethylamino)methyl]-1-benzothiophene-2-carboxamide] |  | > 5 | 
3 | CN1CCN(Cc2c(C(=O)Nc3ccc(Cl)cc3C(=O)Nc3ccc(Cl)cc3)sc3ccccc23)CC1 [N-{4-chloro-2-[(4-chlorophenyl)carbamoyl]phenyl}-3-[(4-methylpiperazin-1-yl)methyl]-1-benzothiophene-2-carboxamide] |  | > 5 | 
4 | CN1CCN(Cc2csc(C(=O)Nc3ccc(Cl)cc3C(=O)Nc3ccc(Cl)cc3)c2Cl)CC1 [thiophene-containing non-amidine inhibitor, 31] |  | > 5 | 

The remaining lines, values ahead:

Row | Ki (Prothrombin) [µM] | Ki (Serine protease 1) [µM] | Ki (Coagulation factor X) [nM] | SMILES
5 | 3.2 |  | 2.2 | CCCN1Cc2sc(C(=O)Nc3ccc(Cl)cc3C(=O)Nc3ccc(Cl)cc3)c(Cl)c2C1 [3-chloro-N-{4-chloro-2-[(4-chlorophenyl)carbamoyl]phenyl}-5-propyl-4H,5H,6H-thieno[2,3-c]pyrrole-2-carboxamide]
6 |  | > 5 |  | CN(C)Cc1c(C(=O)Nc2ccc(Cl)cc2C(=O)Nc2ccc(Cl)cc2)sc2ccccc12 [N-{4-chloro-2-[(4-chlorophenyl)carbamoyl]phenyl}-3-[(dimethylamino)methyl]-1-benzothiophene-2-carboxamide]
7 |  | > 5 |  | CCOC(=O)CN(C)Cc1csc(C(=O)Nc2ccc(Cl)cc2C(=O)Nc2ccc(Cl)cc2)c1Cl [ethyl 2-({[4-chloro-5-({4-chloro-2-[(4-chlorophenyl)carbamoyl]phenyl}carbamoyl)thiophen-3-yl]methyl}(methyl)amino)acetate]
